These results are taken from patent publication US20110207697A1, “XANTHOHUMOL COMPOSITIONS AND METHODS FOR TREATING SKIN DISEASES OR DISORDERS” (Betal, LLC, priority 2008, published 2011).

Assay [1] in a line: HORAC hydroxyl radical ORAC. The note with it: FIG. 2 radar chart. As to the method: (§1) [table] […] The SOAC scores are not included in this figure; ORAC values used are the sum of lipophilic and hydrophilic results. For each assay category, scaling was made logarithmic so that the plot on the chart resembles the associated rating. […] The larger the spatial area, the higher the overall antioxidative capacity. […] Both hydrophilic and lipophilic oxygen radical absorbance capacity (ORAC) assays were carried out at Brunswick Laboratory (Wareham, Mass.) based on the modified ORACfl method reported by Ou et al. (2001 J. Agric. Food Chem. 49: 4619-4626, 2002 J. Agr. Food Chem. 50: 3122-3128). Trolox, a water-soluble vitamin E analog, was used as the calibration standard. The data are expressed as mmole of Trolox equivalents per gram (mmol TE/g). The acceptable precision of the ORAC assay is a 15% relative standard deviation. […] Hydroxyl radical ORAC (HOR-AC) is expressed as mmole caffeic acid equivalent per gram (mmol CAE/g). […] The peroxyl nitrite ORAC (NORAC) result is expressed as mmol TE/g. Alpha-tocopherol (vitamin E) was used as the calibration standard, and the singlet oxygen absorbance capacity (SOAC) result is expressed as mmole a-tocopherol equivalent (mmol VtE) per gram (Aubry et al. 1989). […] Radical-scavenging activity was measured by the change in absorbance at 517 nm with the DPPH result expressed as mmol TE/g. […] The FRAP result is expressed as mmol TE/g (Ou et al. 2002b). […]

The target in assay [2] is T1, interstitial collagenase (MMP-1) (Homo sapiens, UniProt P03956).
T1 construct: host or cells: mammalian cells
T1 sequence (P03956 100-469): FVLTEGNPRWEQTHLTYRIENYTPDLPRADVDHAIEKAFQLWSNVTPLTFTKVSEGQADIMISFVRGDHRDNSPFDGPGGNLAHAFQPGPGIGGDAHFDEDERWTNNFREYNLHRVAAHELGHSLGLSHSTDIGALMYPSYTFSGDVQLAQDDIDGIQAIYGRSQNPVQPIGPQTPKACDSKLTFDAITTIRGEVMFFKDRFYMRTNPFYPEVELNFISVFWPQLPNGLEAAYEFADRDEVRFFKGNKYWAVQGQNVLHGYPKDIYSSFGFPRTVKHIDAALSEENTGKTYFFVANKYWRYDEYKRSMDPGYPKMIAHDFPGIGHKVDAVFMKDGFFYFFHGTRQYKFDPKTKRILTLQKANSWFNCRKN
Briefly: Anticollagenase assay. Conditions: mean of three measurements. In kind it is biochemical. As to the method:
(§2) Human recombinant matrix metalloproteinase-MMP-1) pro-enzyme, expressed in mammalian cells, and human nutrophil MMP-8 pro-enzyme were activated with 4-aminophenylmercuric acetate for 60 min 37 1 C, respectively (Knight et al. 1992 FEBS Lett. 296: 263-266). Hop components and vehicle were preincubated with 5 nM MMP- and 6 nM MMP-8 active enzymes in a modified MOPS buffer, pH 7.2, for 60 minutes at 37 C. The reaction was initiated by addition of […] Mca-Pro-Leu-Gly-Leu-Dpa-Ala-Arg for another 120-minute incubation period. The determination of the amount of Mca-Pro-Leu-Gly formed was read spectrofluorimetrically at 340/400 nm. Tissue inhibitors of metalloproteinase TIMP-1 and TIMP-2 were used as positive controls (Olson et 1997 J. Biol. Chem. 272: 29975-29983).

The target in assay [3] is T2, neutrophil collagenase (MMP-8) (Homo sapiens, UniProt P22894).
T2 construct: from tissue; host or cells: human neutrophils
T2 sequence (P22894 101-467): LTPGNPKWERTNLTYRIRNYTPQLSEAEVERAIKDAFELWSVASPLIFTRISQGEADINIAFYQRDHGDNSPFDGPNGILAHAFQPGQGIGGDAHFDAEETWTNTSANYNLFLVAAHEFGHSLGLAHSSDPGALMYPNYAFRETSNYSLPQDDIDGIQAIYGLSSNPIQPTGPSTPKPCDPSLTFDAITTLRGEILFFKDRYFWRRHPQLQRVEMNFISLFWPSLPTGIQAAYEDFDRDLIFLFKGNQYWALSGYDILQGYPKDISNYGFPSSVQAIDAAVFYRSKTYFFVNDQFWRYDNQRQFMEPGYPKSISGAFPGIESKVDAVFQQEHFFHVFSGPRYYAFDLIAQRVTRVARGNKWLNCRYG
Kind of assay: Anticollagenase assay. Type of assay: biochemical. The note with it: mean of three measurements. The method, then:
as §2

The nature of assay [4]: Singlet oxygen absorbance capacity (SOAC). From the text:
[table] Alpha-tocopherol (vitamin E) was used as the calibration standard, and the SOAC result is expressed as mmol VtE/g. The higher the SOAC score, the higher the singlet oxygen-quenching capacity. […] Singlet oxygen has been postulated to be a highly reactive and toxic intermediate against skin. It is known that the acne-causing bacterium P. acnes naturally produces high amounts of intracellular porphyrins, mostly coproporphyrin (Ashkenazi et al. 2003). Singlet oxygen can be generated on the skin surface from P. acnes porphyrins under sunlight and induce serious skin damage ([…] et al. 1996 Biochem. Biophys. Res. Commun. 223: 578-582). Various skin disorders progress through a singlet oxygen-dependent mechanism, including acne, atopic dermatitis, and skin aging. Both hydrophilic and lipophilic oxygen radical absorbance capacity (ORAC) assays were carried out at Brunswick Laboratory (Wareham, Mass.) based on the modified ORACfl method reported by Ou et al. (2001 J. Agric. Food Chem. 49: 4619-4626, 2002 J. Agr. Food Chem. 50: 3122-3128). Trolox, a water-soluble vitamin E analog, was used as the calibration standard. The data are expressed as mmole of Trolox equivalents per gram (mmol TE/g). The acceptable precision of the ORAC assay is a 15% relative standard deviation. Caffeic acid was used as the calibration standard. Hydroxyl radical ORAC (HOR-AC) is expressed as mmole caffeic acid equivalent per gram (mmol CAE/g). Trolox was used as the calibration standard. The peroxyl nitrite ORAC (NORAC) result is expressed as mmol TE/g. Alpha-tocopherol (vitamin E) was used as the calibration standard, and the singlet oxygen absorbance capacity (SOAC) result is expressed as mmole a-tocopherol equivalent (mmol VtE) per gram (Aubry et al. 1989). […] Radical-scavenging activity was measured by the change in absorbance at 517 nm with the DPPH result expressed as mmol TE/g. […] The FRAP result is expressed as mmol TE/g (Ou et al. 2002b). Superoxide dismutase (SOD) was used as a calibration standard; the SOD result is expressed as kilo unit SOD equivalent (kunitSODeq) per gram.

Assay [5] is described as follows: FRAP ferric reducing antioxidative power. Conditions: FIG. 2 radar chart. The method, then:
as §1

As for `COc1cc(O)c(CC=C(C)C)c(O)c1C(=O)/C=C/c1ccc(O)cc1` [Xanthohumol (7), 3′-[3,3-dimethylallyl]-2′,4′,4-trihydroxy-6′-methoxychalcone], the “quenching activity against hydroxyl radical (HORAC), rank among hop components” value in assay [1] is “highest quenching activity”. The entries for the “Inhibitory ratio (%) MMP-1” value in assay [2] (10 μg/mL), in assay [2] (30 μg/mL) and in assay [2] (100 μg/mL) were 25%, 65% and 91%, respectively. The results for the “Inhibitory ratio (%) MMP-8” value in assay [3] (10 μg/mL), in assay [3] (30 μg/mL) and in assay [3] (100 μg/mL) were 31%, 70% and 99%, respectively. The “SOAC value, times higher than that of vitamin E or Polyphenon 60” value in assay [4] is on record as 8-15 times. Further, the “SOAC (Vitamin E equivalent)” value in assay [4] (expressed as mmol VtE/g) came to 14.1 Vitamin E equivalent. For the same molecule, in assay [5], the “quenching activity against ferric ion (FRAP), rank among hop components” value is on record as “highest quenching activity”.
